Results reported in patent publication US20160067211A1, “PHARMACEUTICAL COMPOSITION” (Eberhard Karls Universitaet Tuebingen Medizinische Fakultaet, priority 2013, published 2016).

Legend:
[1] = tested on: human HDAC enzymes from nuclear extract of HeLa cells; assay: HDAC inhibitor screening assay (HeLa nuclear extract); format: biochemical; details: 6-PN 5 μM, 8-PN 10 μM
Description: (§1) FIG. 2: In silico docking analysis with 6-PN and 8-PN illustrates the inhibitory potential on human-derived HDACs of class I and II. (A) Results of the in silico docking analysis of 6-PN and 8-PN with crystal structures of HDAC2 (class I) and HDAC4 (class II). […] Both molecules are predicted to interact with the zinc ion as well as other residues of the catalytic center. Docking analyses of 6-PN and 8-PN in the individual HDAC binding pockets were performed using GOLD (version 4.1.2) and MOE (version 2009.10). (B) Overall HDAC inhibition in cellular extracts of the human cell line HeLa by increasing concentrations of 6-PN and 8-PN (5 μM, 10 μM, 20 μM, 50 μM and 100 μM). As reference inhibitor 100 μM SAHA was used. Every concentration was tested three times in triplicates. Shown are the mean±SD. (C) Specific fluometric profiling assay using recombinant human HDACs of classes I, II and IV. Specific inhibition values were generated for the treatment with 100 μM 6-PN and 8-PN. TSA was used as reference inhibitor (HDAC1, 2, 3, 6, 10, 11: 10 nM; HDAC4, 8, 9: 1 μM; HDAC5, 7:10 μM). The inhibition vales for every HDAC were yielded by one experiment performed in duplicates Shown are the mean±S.A. […]

[2] = tested on: human HDAC enzymes HDAC1-HDAC11; assay: HDAC inhibition profiling (Fluor de Lys); format: biochemical; details: 100 μM, HDAC1-HDAC11, 1% DMSO
Description: as §1, with “8-PN.” for “8-PN. TSA was used as reference inhibitor (HDAC1, 2, 3, 6, 10, 11: 10 nM; HDAC4, 8, 9: 1 μM; HDAC5, 7:10 μM). The inhibition vales for every HDAC were yielded by one experiment performed in duplicates Shown are the mean±S.A.”
The human HDAC profiling assay was performed on the basis of the Fluor de Lys™ technology by Scottish Biomedical, Glasgow, United Kingdom. The percentage inhibition values of 100 μM of 6-PN and 100 μM of 8-PN against the human HDAC enzymes HDAC1, HDAC2, HDAC3, HDAC4, HDAC5, HDAC6, HDAC7, HDAC8, HDAC9, HDAC10, and HDAC11 were determined. […]

[3] = tested on: prostate cancer cell line PC-3; details: PC-3 in vitro; cited from earlier work
HT-29 colon cancer cells = assay: MUH proliferation assay, HT-29; format: cell-based; details: rising concentrations 0.1 μM to 100 μM, 48 hours
Description: FIG. 6: 6-PN and 8-PN inhibit the growth of MCF-7 and HT-29. (A, B) MUH proliferation assay of HT-29 colon cancer cells and MCF-7 breast cancel cells treated with increasing concentrations of 6-PN and 8-PN (0.1 μM to 100 μM) for 48 hours. Shown are the mean±S.A.; the experiments were performed in quadruplicates.
The cells were seeded in triplicates in 96-well plates at a density of 2,500 cells per well in 50 μl medium (5×10^4 cells per milliliter). After 24 hours, the medium was replaced by medium containing 6-PN, 8-PN (dissolved in DMSO), TSA (dissolved in EtOH) or SAHA (dissolved in DMSO) at the concentrations to be tested with or without the addition of the necrosis inhibitor IM-54 at 5 μM (Calbiochem, Darmstadt, Germany). Cells treated with culture medium without or with DMSO served as controls. The assay was started following an incubation of 24 hours. The medium was discarded, each well was washed two times with PBS (without Ca^++ and Mg^++) and 100 μl of a solution containing […] of 4-methyl umbellipheryl heptanoate per ml PBS was added. Plates were incubated at 37° C. for 1 hour and measured in a Fluoroskan II (Lab Systems, Helsinki, Finland) with a […]. The intensity of fluorescence indicates the number of viable cells in the wells. […]

P-glycoprotein = P-glycoprotein (Homo sapiens, UniProt P08183); details: cited from earlier work
P-glycoprotein, sequence (P08183 whole entry): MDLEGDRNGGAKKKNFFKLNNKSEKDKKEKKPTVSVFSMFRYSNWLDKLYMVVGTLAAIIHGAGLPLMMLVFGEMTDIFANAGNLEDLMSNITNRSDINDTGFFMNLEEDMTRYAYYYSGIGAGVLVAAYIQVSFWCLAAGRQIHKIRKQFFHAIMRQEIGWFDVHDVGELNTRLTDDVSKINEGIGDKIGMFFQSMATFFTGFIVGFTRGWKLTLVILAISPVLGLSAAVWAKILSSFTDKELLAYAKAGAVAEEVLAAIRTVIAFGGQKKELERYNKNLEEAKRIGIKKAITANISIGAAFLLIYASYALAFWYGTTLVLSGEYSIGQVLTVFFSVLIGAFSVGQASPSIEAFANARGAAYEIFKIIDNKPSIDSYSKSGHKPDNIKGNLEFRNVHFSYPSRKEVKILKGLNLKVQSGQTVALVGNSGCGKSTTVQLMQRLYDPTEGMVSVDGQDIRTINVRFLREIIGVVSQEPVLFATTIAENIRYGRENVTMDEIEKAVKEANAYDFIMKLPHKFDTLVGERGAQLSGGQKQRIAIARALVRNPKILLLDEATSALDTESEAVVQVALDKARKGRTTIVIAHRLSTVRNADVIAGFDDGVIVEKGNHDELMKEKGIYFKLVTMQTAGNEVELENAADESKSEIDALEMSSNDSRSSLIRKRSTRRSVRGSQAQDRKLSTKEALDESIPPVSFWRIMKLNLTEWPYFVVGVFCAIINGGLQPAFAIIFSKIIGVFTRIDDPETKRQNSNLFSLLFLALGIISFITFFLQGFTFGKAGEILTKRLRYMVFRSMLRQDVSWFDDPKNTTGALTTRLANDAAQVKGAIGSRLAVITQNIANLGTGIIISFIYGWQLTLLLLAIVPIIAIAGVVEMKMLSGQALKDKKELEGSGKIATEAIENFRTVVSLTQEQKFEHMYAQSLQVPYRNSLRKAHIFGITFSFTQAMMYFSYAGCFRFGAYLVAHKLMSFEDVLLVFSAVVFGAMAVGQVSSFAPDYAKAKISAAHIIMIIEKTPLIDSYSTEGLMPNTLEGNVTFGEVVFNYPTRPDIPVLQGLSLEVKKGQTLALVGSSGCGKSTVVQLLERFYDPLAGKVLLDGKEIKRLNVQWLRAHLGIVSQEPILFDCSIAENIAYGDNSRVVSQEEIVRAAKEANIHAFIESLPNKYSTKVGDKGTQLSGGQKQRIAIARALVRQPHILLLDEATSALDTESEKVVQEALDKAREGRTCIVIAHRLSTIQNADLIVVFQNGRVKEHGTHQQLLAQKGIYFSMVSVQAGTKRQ

BLM melanoma cells [4] = assay: FACS cell cycle analysis (PI), BLM; format: cell-based, human; details: 100 μM, 48 hours
Description: (§2) (A) Cell cycle FACS analyses of PI stained BLM and SK-MEL-28 melanoma cells. 100 μM of 8-PN-induced a G2 arrest in both cells. (B) FACS analyses of BLM and SK-MEL-28 melanoma cells treated with 100 μM 6-PN or 8-PN and stained for annexin V/PI; staurosporin was used as control for apoptosis induction and DMSO as vehicle control. […] (C) BLM and SK-MEL-28 melanoma cells were treated with 100 μM of PNs; TSA, SAHA and EMSO were used as controls.
(§3) To further analyze the possibility of apoptosis induction, an extensive apoptosis assay was performed on SK-MEL-28 melanoma cells 4 hours after treatment with 100 μM 6-PN or 8-PN (FIG. 9). […] This was verified by FACS cell cycle analyses to screen for a possible increase of the sub-G1 fraction of cells (apoptotic cells) or for the induction of a G2 arrest (inhibition of proliferation). […] To further differentiate between the induction of apoptosis and/or necrosis an PI/Annexin V staining of SK-MEL-28 and BLM cells was performed 4 hours and 24 hours after the treatment with 6-PN or 8-PN; 10 μM staurosporin (6 hours treatment) was used as positive control for the induction of apoptosis; DMSO treatment was used as vehicle control. The cells were then analyzed by FACS.

BLM melanoma cells [5] = assay: PI/Annexin V staining FACS, BLM; format: cell-based, human; details: 100 μM; for annexin V positive (apoptotic) cells: DMSO control 4.1%; for PI positive (nectrotic) cells: DMSO control 9.1%
Description: as §2, §3

In the case of `CC(C)=CCc1c(O)cc(O)c2c1OC(c1ccc(O)cc1)CC2=O` (centres unmarked) [8-PN, 5,7-Dihydroxy-2-(4-hydroxy-phenyl)-8-(3-methyl-but-2-enyl)-chroman-4-one], the “HDAC inhibitory effect at low concentration” value [1] is given as “showed inhibitory effects”, the “inhibition of HDAC activity on all tested human HDACs” value [2] is given as “strongly inhibited” and the antiproliferative effects [3] is given as “antiproliferative effects”. For the same compound, the cell proliferation (HT-29 colon cancer cells) was “severe reduction”, the “inhibition of the P-glycoprotein” value (P-glycoprotein) was “inhibition” and the “sub-G1 fraction (apoptotic cells)” value (BLM melanoma cells [4]) was “remained unaffected”. For the same compound, the “cells in the G2 phase” value (BLM melanoma cells [4]; DMSO control 30.4%) was 99.6%, the “annexin V positive (apoptotic) cells” value (BLM melanoma cells [5]; 4 hours) was 1.2% and the “PI positive (nectrotic) cells” value (BLM melanoma cells [5]; 4 hours) was 27%. For the same compound, the “annexin V positive (apoptotic) cells” value (BLM melanoma cells [5]; 24 hours) was 5.9% and the “PI positive (nectrotic) cells” value (BLM melanoma cells [5]; 24 hours) was 22.4%.
